# Measured values reported in patent EP1143976B9, “BETA-D-2', 3' -DIDEHYDRO-2', 3' -DIDEOXY-5-FLUOROCYTIDINE FOR USE IN THE TREATMENT OF HIV INFECTIONS” (priority 1999, dated 2000).
# “And” between values parts separate entries of the source, which are not always exact repeats. Equal entries are not always repeated. Where two headings read alike, the source gives them in different places.
# Tests used:
# [1] = system: 4xM184VPITT (184V,67N,70R,215Y,219Q); experiment: Effect against cloned viruses, in MT-2 cells; format: cell-based, HIV-1; settings: for FI50: In MT-2 cells, EC50 relative to HIV-1LAV or xxBRUPITT
# [2] = system: G2-2PITT (103N,41L,184V,210W,others); experiment: Effect against cloned viruses, in MT-2 cells; format: cell-based, HIV-1; settings: for FI50: In MT-2 cells, EC50 relative to HIV-1LAV or xxBRUPITT
# 215/41PITT = experiment: Effect against HIV-1 and cloned viruses in human PBM cells; format: cell-based; settings: for FI50: EC50 relative to HIV-1LAV or xxBRUPITT
# From the text: (§1) Table 5 provides the median effective concentration and combinations index (C.I.) values for D-D4FC alone and in combination with AZT and D4T in acutely infected human PBM cells (Day6). Table 6 describes the effect of β-D and β-L-D4FC against HIV-1 and cloned viruses I human PBM cells.
# [3] = system: 4X AZTPITT (67N,70R,215Y,219Q); experiment: as above; format: cell-based; settings: for EC50 / EC90: human PBM cells
# From the text: as §1
# L-D4FC-res.(25 µM) = experiment: as above; format: cell-based
# From the text: as §1
# M184V/T215YPITT = experiment: as above; format: cell-based; settings: for FI50: EC50 relative to HIV-1LAV or xxBRUPITT; for FI90: EC90 relative to HIV-1LAV or xxBRUPITT
# From the text: as §1
# M184VPITT = experiment: as above; format: cell-based; settings: for FI50: EC50 resistant virus relative to HIV-1LAV or xxBRUPITT; for FI90: EC90 resistant virus relative to HIV-1LAV or xxBRUPITT
# From the text: as §1
# T215YPITT = experiment: as above; format: cell-based; settings: for FI50: EC50 relative to HIV-1LAV or xxBRUPITT; for FI90: EC90 relative to HIV-1LAV or xxBRUPITT
# From the text: as §1
# [4] = system: HIV-1 in acutely infected human PBM cells; experiment: Median effect and combination index analysis in acutely infected human PBM cells (Day 6); format: cell-based; settings: Human immunodeficiency virus 1, PBMC, 144 h
# From the text: as §1
# HIV-1LAI = experiment: Antiviral susceptibility assay (inhibition of p24 antigen production) in MT-2 cells, starting virus; format: cell-based; settings: Human immunodeficiency virus 1, MT2, 168 h, day 7 post infection, HIV-1LAI P0, wild type baseline
# Method: Cells. MT-2 cells (AIDS Research and Reference Reagent Program, National Institute of Allergy and Infectious Diseases, National Institutes of Health, contributed by D. Richman) were cultured in RPMI 1640 (Whittaker M.A., Bioproducts, Walkersville, MD) supplemented with 10% fetal bovine serum, 10 mM HEPES buffer, penicillin (50 IU/ml) and streptomycin (50 µg/ml).
# Viruses. HIV-1LAI, a molecularly cloned clinical isolate, was used both as the starting virus for the resistance selection as well as for the generation of recombinant mutants. Stock preparations of HIV-1LAI, were prepared by electrophorating 5-10 jig of proviral plasmid DNA into 1.3 x 10^7 MT-2 cells. At peak viral cytopathic effect (generally 7 days post transfection), the supernatant from infected cultures was collected, aliquoted and stored at -80°C until use. Virus preparations were titered by threefold endpoint dilution in MT-2 cells, and the TCID50 was calculated with the Reed and Muench equation.
# Antiviral susceptibility assays. Virus susceptibility to D-D4FC was measured by measuring percent inhibition of p24 antigen production. Briefly, MT-2 cells (1 x 10^5 cells/ml) were infected with virus at a moi of 0.01 in the presence of serial D-D4FC dilutions. Each dilution was tested in triplicate. […]
# HIV-1p37 D-Fd4C#1 = experiment: Antiviral susceptibility assay (p24 antigen) in MT-2 cells, D-D4FC selected virus, selection #1 passage 37; format: cell-based; settings: V90I, R172K
# Method: (§2) Selection of resistant virus. Prior to starting the selection of D-D4FC resistant virus, the starting virus (HIV -1LAI) was passaged as cell-free virus for 10 cycles in MT-2 cells in the absence of drug. D-D4FC resistant virus was selected by serially passaging HIV-1LAI in MT-2 cells in the presence of gradually increasing concentrations of D-D4FC. The selection for D-D4FC resistant virus was conducted twice. Selection was initiated by inoculating 1 x 10^6 MT-2 cells with […] of virus. At peak viral cytopathic effect (4-7 days post infection), supernatant from the infected cultures was collected and 0.1-0.3 ml were subsequently used to initiate another cycle of infection. Supernatant was also aliquoted and stored at -80°C for characterization of selected virus. Virus was passaged at least three times at each concentration, the number of cycles at any given concentration of drug being dependent on the ability of virus to grow at the particular concentration of D-D4FC. During the first selection procedure, virus was passaged once in the absence of drug prior to increasing the drug concentration (Table 2). As a control, virus was also passaged in parallel in the absence of drug. […]
# Antiviral susceptibility assays. Virus susceptibility to D-D4FC was measured by measuring percent inhibition of p24 antigen production. […]
# HIV-1p20 D-Fd4C#2 = experiment: Antiviral susceptibility assay (p24 antigen) in MT-2 cells, D-D4FC selected virus, selection #2 passage 20; format: cell-based; settings: mutations K65R, V179D; for EC50: p24 antigen, selection #2 passage 20
# Method: as §2
# (§3) Antiviral susceptibility assays. Virus susceptibility to D-D4FC was measured by measuring percent inhibition of p24 antigen production. Briefly, MT-2 cells (1 x 10^5 cells/ml) were infected with virus at a moi of 0.01 in the presence of serial D-D4FC dilutions. Each dilution was tested in triplicate. Culture supernatants were harvested day 7 post infection and assayed for p24 antigen production using a commercial assay (DuPont, NEN Products, Wilmington, Del.).
# xxK65R = experiment: D-D4FC susceptibility of recombinant HIV-1 in MT-2 cells; format: cell-based
# Method: as §3
# (§4) Production of mutant recombinant HIV-1. Mutant RT was generated using the Altered SitesII in vitro Mutagenesis System (Promega, Madison, WI). Mutagenesis was carried out on HIV-1LAI, RT cloned into a mutagenesis vector (PALTER, Promega). The presence of the desired mutation was determined by direct sequencing of the RT gene. The mutant RT was subsequently ligated into the pxxHIV-1 LAI vector. Stocks of mutant virus were then prepared by electrophorating 5-10 µg of DNA into 1.3 x 10^7 MT-2 cells as described above.
# xxK70N//R172K = experiment: as above; format: cell-based
# Method: as §3, §4
# xxK70N = experiment: as above; format: cell-based
# Method: as §3, §4
# xxR172K = experiment: as above; format: cell-based
# Method: as §3, §4
# xxV901/R172K = experiment: as above; format: cell-based
# Method: as §3, §4
# xxV90I = experiment: as above; format: cell-based
# Method: as §3, §4
# HIV-1LAV = experiment: Effect against HIV-1 and cloned viruses in human PBM cells; format: cell-based; settings: Human immunodeficiency virus 1, PBMC
# From the text: as §1
# xxBRUPITT = experiment: as above; format: cell-based; settings: Human immunodeficiency virus 1, PBMC
# From the text: as §1
# [5] = In MT-2 cells (courtesy of Dr. J. Mellors)
# [6] = human PBM cells, L-D4FC-res.(25 µM) virus
# [7] = acutely infected human PBM cells, Day 6
# [8] = median effective concentration, acutely infected human PBM cells, Day 6, read-out: EC50
# [9] = Human immunodeficiency virus 1, MT2, In MT-2 cells (courtesy of Dr. J. Mellors)
# [10] = EC90 relative to HIV-1LAV or xxBRUPITT
# [11] = Human immunodeficiency virus 1, PBMC, human PBM cells
# [12] = Human immunodeficiency virus 1, PBMC
structure (smiles),measurement,setting,value
"Nc1nc(=O)n([C@H]2C=C[C@@H](CO)O2)cc1F [β-L-D4FC, β-2',3'-didehydro-2',3'-dideoxy-5-fluorocytidine, reference compound]",EC50,[1]; [5],> 3300 nM
same,FI50,[1],>47
same,EC50,[2]; [5],> 3300 nM
same,FI50,[2],>47
same,FI50,215/41PITT,1
same,EC50,[3],16 nM
same,EC90,[3],110 nM
same,FI50,"L-D4FC-res.(25 µM); EC50 relative to HIV-1LAV or xxBRUPITT, L-D4FC-res.(25 µM)",222
same,FI90,"L-D4FC-res.(25 µM); EC90 relative to HIV-1LAV or xxBRUPITT, L-D4FC-res.(25 µM)",208
same,EC50,L-D4FC-res.(25 µM); [6],7560 nM
same,EC90,L-D4FC-res.(25 µM); [6],33300 nM
same,FI50,M184V/T215YPITT,332
same,FI90,M184V/T215YPITT,848
same,FI50,M184VPITT,146
same,FI90,M184VPITT,163
same,FI50,T215YPITT,0.2
same,FI90,T215YPITT,0.3
"Cc1cn([C@H]2C[C@H](N=[N+]=[N-])[C@@H](CO)O2)c(=O)[nH]c1=O [AZT, 3'-azido-3'-deoxythymidine]",EC50,[4],3.3 nM
"Nc1nc(=O)n([C@H]2C=C[C@@H](CO)O2)cc1F [D-D4FC, β-2',3'-didehydro-2',3'-dideoxy-5-fluorocytidine]",EC50,HIV-1LAI,210 nM
same,EC50,"HIV-1p37 D-Fd4C#1; Human immunodeficiency virus 1, MT2, p24 antigen, selection #1 passage 37, mutations K70N",4070 nM
same,Fold Resistance,"HIV-1p37 D-Fd4C#1; versus wild type HIV-1LAI, mutations K70N, 10080 min",19.3 and 19.4
same,EC50,"HIV-1p20 D-Fd4C#2; Human immunodeficiency virus 1, MT2, MT-2 cells",1100 nM
same,EC50,HIV-1p20 D-Fd4C#2; MT-2 cells,1110 nM
same,Fold Resistance,"HIV-1p20 D-Fd4C#2; MT-2 cells, versus wild type HIV-1LAI, 10080 min",5.3
same,EC50,"xxK65R; Human immunodeficiency virus 1, MT2, recombinant xxK65R",1240 nM
same,Fold Resistance,"xxK65R; xxK65R versus xxLAI, 10080 min",3.9
same,EC50,"xxK70N//R172K; Human immunodeficiency virus 1, MT2",56 nM
same,Fold Resistance,"xxK70N//R172K; MT-2 cells, xxK70N/V901/R172K versus xxLAI, 10080 min",0.4
same,EC50,"xxK70N; Human immunodeficiency virus 1, MT2, recombinant xxK70N",240 nM
same,Fold Resistance,"xxK70N; xxK70N versus xxLAI, 10080 min",1.4
same,EC50,"xxR172K; Human immunodeficiency virus 1, MT2, recombinant xxR172K",230 nM
same,Fold Resistance,"xxR172K; xxR172K versus xxLAI, 10080 min",0.8
same,EC50,"xxV901/R172K; Human immunodeficiency virus 1, MT2, recombinant xxV901/R172K",360 nM
same,Fold Resistance,"xxV901/R172K; xxV901/R172K versus xxLAI, 10080 min",1.3
same,EC50,"xxV90I; Human immunodeficiency virus 1, MT2, recombinant xxV90I",250 nM
same,Fold Resistance,"xxV90I; xxV90I versus xxLAI, 10080 min",1.5
same,EC90,[4]; [7],78 nM
same,EC50,[4]; [8],7.6 nM
same,EC50,[1]; [9],45 nM
same,FI50,[1]; listed as β-D-D4FC,0.2
same,EC50,[2]; [9],40 nM
same,FI50,[2]; listed as β-D-D4FC,0.2
same,FI50,215/41PITT; listed as β-D-D4FC,2
same,FI90,215/41PITT; [10],1
same,EC50,215/41PITT; [11],130 nM
same,EC90,215/41PITT; [11],490 nM
same,FI50,[3]; EC50 relative to HIV-1LAV or xxBRUPITT,1
same,FI90,[3]; [10],1
same,EC50,[3]; [12],72 nM
same,EC90,[3]; [12],460 nM
same,EC50,HIV-1LAV,220 nM
same,EC90,HIV-1LAV,1320 nM
same,FI50,M184V/T215YPITT; listed as β-D-D4FC,1
same,FI90,M184V/T215YPITT; listed as β-D-D4FC,1
same,EC50,M184V/T215YPITT; [11],57 nM
same,EC90,M184V/T215YPITT; [11],470 nM
same,FI50,M184VPITT; listed as β-D-D4FC,2
same,FI90,M184VPITT; listed as β-D-D4FC,2
same,EC50,M184VPITT; [11],140 nM
same,EC90,M184VPITT; [11],1040 nM
same,FI50,T215YPITT; listed as β-D-D4FC,1
same,FI90,T215YPITT; listed as β-D-D4FC,1
same,EC50,T215YPITT; [11],67 nM
same,EC90,T215YPITT; [11],350 nM
same,EC50,xxBRUPITT,65 nM
"Cc1cn([C@H]2C=C[C@@H](CO)O2)c(=O)[nH]c1=O [D4T, 2',3'-dideoxy-2',3'-didehydrothymidine]",EC90,[4]; [7],220 nM
same,EC50,[4]; [8],15 nM
